One experiment has as its system Strain IFO 13725. Put plainly: Susceptibility toward antibiotic (minimum inhibition concentration). Particulars: Nocardia. The experiment is classed as cell-based, Nocardia sp. No. C-14482. From the text:
(§1) For example, a conventional mutagenesis effected with the strain IFO 13725 as the parent strain yields the strain IFO 13887, a variant capable of producing advantageously Antibiotic C-14482 B. This strain has the capability to produce C-14482 B in increased quantities as compared with the parent strain thereof, and is similar in taxonomical characteristics to the parent strain, except the physiological properties shown in Table 4.

The test system of the next experiment is Strain IFO 13887. The experiment is described as above. Particulars: Nocardia. The experiment is classed as cell-based, Nocardia sp. No. C-14482.
Description: as §1

Where [1] appears, read: IFO13725, Strain IFO 13725, read-out: minimum inhibition concentration.
[2] abbreviates: IFO13887, Strain IFO 13887, read-out: minimum inhibition concentration.

In brackets after ≈: the same amount, converted by molar mass. Read-outs that look alike come from different tables or passages of the source. Where only a bound is given, the exact number is not on record here.

On to `O=C(N[C@H](CO)[C@H](O)c1ccc([N+](=O)[O-])cc1)C(Cl)Cl` [Chloramphenicol], for which the MIC in the experiment with Strain IFO 13725 (setting [1]) is 10 µg/mL (≈ 30.9 µM); with Strain IFO 13887 (setting [2]), 5 µg/mL (≈ 15.5 µM).

Take `CCC[C@@H]1C[C@@H](C(=O)N[C@@H]([C@H]2O[C@H](SC)[C@H](O)[C@@H](O)[C@H]2O)[C@@H](C)O)N(C)C1` [Lincomycin]: the MIC in the experiment on Strain IFO 13725 (setting [1]) is 5 µg/mL (≈ 12.3 µM); in the experiment on Strain IFO 13887 (setting [2]) it was 20 µg/mL (≈ 49.2 µM).

Take `CC1(C)S[C@@H]2[C@H](NC(=O)Cc3ccccc3)C(=O)N2[C@H]1C(=O)O` [Penicillin G]: the figures for the MIC in the experiment with Strain IFO 13725 (setting [1]) and in the experiment on Strain IFO 13887 (setting [2]) were 10 µg/mL (≈ 29.9 µM) and 50 µg/mL (≈ 150 µM), respectively.

As to `CO[C@H]1/C=C/O[C@@]2(C)Oc3c(C)c(O)c4c(O)c(c(/C=N/N5CCN(C)CC5)c(O)c4c3C2=O)NC(=O)/C(C)=C\C=C\[C@H](C)[C@H](O)[C@@H](C)[C@@H](O)[C@@H](C)[C@H](OC(C)=O)[C@@H]1C` [Rifampicin], the MIC with Strain IFO 13725 (setting [1]) and in the experiment on Strain IFO 13887 (setting [2]) was under 0.1 µg/mL throughout.

`[H]/N=C(/N)N[C@H]1[C@H](O)[C@@H](O)[C@H](O[C@@H]2O[C@@H](C)[C@](O)(C=O)[C@H]2O[C@@H]2O[C@@H](CO)[C@H](O)[C@@H](O)[C@@H]2NC)[C@@H](N/C(N)=N\[H])[C@@H]1O` [Streptomycin]: the MIC stood at 1 µg/mL (≈ 1.72 µM) in the experiment with Strain IFO 13725 (setting [1]) and 5 µg/mL (≈ 8.6 µM) in the experiment on Strain IFO 13887 (setting [2]).

With `CN(C)C1C(=O)C(C(N)=O)=C(O)C2(O)C(=O)C3=C(O)c4c(O)cccc4C(C)(O)C3CC12` (stereo not drawn) [Tetracycline], the MIC in the experiment with Strain IFO 13725 (IFO13725, read-out: minimum inhibition concentration) was 0.5 µg/mL (≈ 1.13 µM); in the experiment on Strain IFO 13887 (IFO13887, read-out: minimum inhibition concentration), 1 µg/mL (≈ 2.25 µM).

The values are drawn from patent US4292309A, “Antibiotics C-14482 B1, B2 and B3” (Takeda Chemical Industries, Ltd., priority 1979, dated 1981).
